Source: patent publication US12533330B2, “(2S)-2-aminopentanethioic s-acid for use as medicament and in therapy of amyotrophic lateral sclerosis” (MASSEY VENTURES LIMITED, priority 2020, dated 2026)

What was measured:
Assay type in all cases: in vivo
[1] = test system: FUS[1-359]-tg mouse line (FUS-tg); test: Onset of paralysis in FUS-tg mouse ALS model; conditions: for percentage of FUS-tg mice with signs of paralysis on day 95: FUS-tg male mice, six weeks via drinking water from age nine weeks, (I) and (IX) 50 mg/kg/day, Riluzole 8 mg/kg
Excerpt: (§1) A transgenic FUS[1-359]-tg mouse line (FUS-tg) was used to test the efficacy of the substance of formula (I) in the therapy of amyotrophic lateral sclerosis according to the guidelines set for ALS preclinical studies. Ludolph A C et al. Guidelines for preclinical animal research in ALS/MND: A consensus meeting. Amyotroph Lateral Scler. 2010; 11:38-45. Mutations in DNA/RNA-binding factor (fused-in-sarcoma) FUS cause ALS in humans. The FUS-tg mouse model recapitulates core hallmarks of human ALS in the spinal cord, including neuroinflammation and neurodegeneration, ensuing muscle atrophy and paralysis. […] J Biol Chem. 2013; 288:25266-25274. Lutz C. Mouse models of ALS: Past, present and future. […] CNS Neurosci Ther. 2020; 26(5):504-517.
(§2) The substance (I) and the substance (IX) represent (2S)- and (2R)-enantiomers of 2-aminopentanethioic S-acid, respectively. The (2R)-enantiomer (IX) was included to the study to clarify importance of (S)- and (R)-configurations of 2-aminopentanethioic S-acid during the therapy of ALS.
The onset of paralysis, a core ALS symptom, was recorded for each FUS-tg mouse.

[2] = test system: FUS[1-359]-tg mouse line (FUS-tg); test: Rotarod test in FUS-tg mouse ALS model; conditions: week 5, via drinking water, one-way ANOVA and Tukey's test
Excerpt: as §1, §2

[3] = test system: FUS[1-359]-tg mouse line (FUS-tg); test: Malondialdehyde (MDA) concentration in spinal cord of FUS-tg mice; conditions: 50 mg/kg/day via drinking water, one-way ANOVA and Tukey's test
Excerpt: A transgenic FUS[1-359]-tg mouse line (FUS-tg) was used to test the efficacy of the substance of formula (I) in the therapy of amyotrophic lateral sclerosis according to the guidelines set for ALS preclinical studies. Ludolph A C et al. Guidelines for preclinical animal research in ALS/MND: A consensus meeting. Amyotroph Lateral Scler. 2010; 11:38-45. Mutations in DNA/RNA-binding factor (fused-in-sarcoma) FUS cause ALS in humans. The FUS-tg mouse model recapitulates core hallmarks of human ALS in the spinal cord, including neuroinflammation and neurodegeneration, ensuing muscle atrophy and paralysis. Shelkovnikova T A et al. Fused in sarcoma (FUS) protein lacking nuclear localization signal (NLS) and major RNA binding motifs triggers proteinopathy and severe motor phenotype in transgenic mice. J Biol Chem. 2013; 288:25266-25274. Lutz C. Mouse models of ALS: Past, present and future. Brain Res. 2018; 1693:1-10. de Munter J et al. Neuro-Cells therapy improves motor outcomes and suppresses inflammation during experimental syndrome of amyotrophic lateral sclerosis in mice. CNS Neurosci Ther. 2020; 26(5):504-517. […]
The concentration of malondialdehyde (MDA), a marker of oxidative stress, was measured in the spinal cord of FUS-tg mice treated with vehicle or substance of formula (I) in comparison with wild type controls. […]

Row | Structure (SMILES) | percentage of FUS-tg mice with signs of paralysis on day 95 [1] [%] | latency to fall in the rotarod test vs. vehicle-treated FUS-tg mice [2] | significance of percentage of mice with signs of paralysis on the 95th day vs. vehicle ([1]; FUS-tg mice, day 95, Fisher test vs. vehicle) | MDA levels in the spinal cord vs. vehicle-treated FUS-tg mice [3]
1 | CCC[C@@H](N)C(=O)S [substance (IX), (2R)-2-aminopentanethioic S-acid, reference compound] | 43 | no significant difference |  | 
2 | CCC[C@H](N)C(=O)S [substance (I), (2S)-2-aminopentanethioic S-acid] | 16 | significantly longer latency to fall | significantly lower | significant reduction of the MDA levels
